Measured values as given in US8053445B2, “Utilities of olefin derivatives” (Shionogi & Co., Ltd., priority 2001, dated 2011).

Test system: promoter region of the gene encoding human apoAI
Assay: Activity to enhance the expression of human apoAI (apoAI promoter-luciferase reporter in HepG2 cells)
Type: cell-based
Conditions: HepG2 cells stably expressing apoAI promoter-luciferase reporter; compounds at 0 to 10 μg/mL, 24 hours incubation
Procedure: The promoter region of the gene encoding human apoAI was isolated, and ligated upstream the structure gene of firefly luciferase to construct a reporter plasmid. The reporter plasmid and a marker plasmid conferring the neomycin resistance were co-infected to cell lines derived from human hepatoma, HepG2 cells, and the cell lines were incubated in a selection medium comprising DMEM medium containing 10% fetal calf serum supplemented with G418 (Final concentration: 0.7 mg/mL, Gibco) to give established strains that stably expressed the reporter molecule. The strains were seeded to a 96-well culture plates at a density of 50,000 cells per well, and incubated for 48 hours at 37° C. under an atmosphere of 5% carbon dioxide. […] The concentration of the compounds, which intensified the luciferase activity twice compared to that of control (DMSO without any compound of the invention added) was set as the minimal effective dose (MED).
In the case of “2-(2-thiophen-3-yl-vinyl)benzothiazole [Ib-91]”, the “MED (minimum effective dose: concentration of the compound which intensified the luciferase activity twice compared to control)” value was 0.7 µg/mL.
In the case of “2-phenyl-5-pyridin-2-yl-penta-2,4-diene nitrile [Ic-76]”, the “MED (minimum effective dose: concentration of the compound which intensified the luciferase activity twice compared to control)” value was 0.23 µg/mL.
For `FC(F)(F)c1ccc(C=Cc2ccccn2)cc1` [Ib-9, 2-[2-(4-trifluorophenyl)vinyl]pyridine], the “MED (minimum effective dose: concentration of the compound which intensified the luciferase activity twice compared to control)” value was 0.71 µg/mL.
With `COc1cc(C=CC=Cc2ccccn2)ccc1OC(C)=O` [Ic-18, phenyl 2-methoxy-4-(4-pyridin-2-yl-buta-1,3-dienyl)acetate] the “MED (minimum effective dose: concentration of the compound which intensified the luciferase activity twice compared to control)” value was 1.9 µg/mL.
In the case of `C(=Cc1ccccc1)Sc1ccccn1` [Id-4, 2-styrylsulfanil-pyridine], the “MED (minimum effective dose: concentration of the compound which intensified the luciferase activity twice compared to control)” value was 1.0 µg/mL.

Test system: not given
Assay: not given
Conditions: not given
`COc1ccc(-c2cnc3ccccc3n2)cc1` [Ia-3, 2-(4-methoxyphenyl)quinoxaline] showed a melting point of 101 to 102 °C.
With `c1ccc2nc(-c3ccsc3)cnc2c1` [Ia-6, 2-(thiophen-3-yl)quinoxaline] the melting point was 86 to 87 °C.
In the case of `c1ccc(-c2ccc(-c3cnc4ccccc4n3)cc2)cc1` [Ia-10, 2-(biphenyl-4-yl)quinoxaline], the melting point was 126 to 127 °C.
`c1ccc(-c2ccc(-c3ccc4ccccc4n3)cc2)cc1` [Ia-12, 2-(biphenyl-4-yl)quinoline] gave a melting point of 180 to 182 °C.
With `c1ccc2nc(-c3ccsc3)ccc2c1` [Ia-15, 2-(thiophen-3-yl)quinoline] the melting point was 132 to 133 °C.
Work on `Clc1ccc(-c2ccc3ccccc3n2)cc1` [Ia-16, 2-(4-chlorophenyl)quinoline] yielded a melting point of 113 to 115 °C.
